Experimental data published in PubChem BioAssay (NCI).
Several values for one entry are separate records, joined by “and”; a condition that tells them apart may be missing. Equal values may be shown once.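 The compound was tested at five concentrations on cells cultured in 96-well plates, with a 48-hour exposure period. The concentration for 50% growth inhibition is given as GI50. TGI is the concentration that stops growth completely.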 Activity calls are given as the source filed them. No stated cut-off is given here; in the data, active means GI50 below about 0.43 µM; inactive means the rest. Where a SMILES comes first, the peptide text is derived from it. Side-chain parts run from the residue outwards. The star is where a group is joined. Cbz = O=C(OCc1ccccc1)*; Boc = CC(C)(C)OC(=O)*

Key:
Experiment in all cases: inhibition of tumour cell growth, NCI panel, 48 h
BT-549 breast = system: BT-549 breast
EKVX NSCLC = system: EKVX NSCLC
HT29 colon = system: HT29 colon
NCI-H522 lung = system: NCI-H522 lung
HOP-62 NSCLC = system: HOP-62 NSCLC
T-47D breast = system: T-47D breast
SK-MEL-2 melanoma = system: SK-MEL-2 melanoma
SK-MEL-28 melanoma = system: SK-MEL-28 melanoma
PC-3 prostate = system: PC-3 prostate
SN12C renal = system: SN12C renal
HCC-2998 colon = system: HCC-2998 colon

CC(C)(C)OC(=O)n1c(Cl)c(C=O)c2ccccc21
52.5 µM: TGI (BT-549 breast)
76.6 µM: TGI (EKVX NSCLC)
43 µM: TGI (HOP-62 NSCLC)
96.4 µM: TGI (SK-MEL-2 melanoma)
54.3 µM: TGI (SN12C renal)
> 100 µM: TGI (HT29 colon) | TGI (NCI-H522 lung) | TGI (T-47D breast) | TGI (SK-MEL-28 melanoma)
64.6 µM: TGI (PC-3 prostate)

COc1ccc(C2=C(Cl)c3cc(OC)c(OC)cc3C2)cc1OC
> 100 µM: TGI (EKVX NSCLC) | TGI (HT29 colon) | TGI (HCC-2998 colon) | TGI (NCI-H522 lung) | TGI (HOP-62 NSCLC) | TGI (SK-MEL-28 melanoma) | TGI (SN12C renal)

O=S1(=O)OCCCOS(=O)(=O)C1(Br)Br
> 100 µM: TGI (BT-549 breast) | TGI (EKVX NSCLC) | TGI (HT29 colon) | TGI (NCI-H522 lung) | TGI (HOP-62 NSCLC) | TGI (T-47D breast) | TGI (SK-MEL-2 melanoma) | TGI (SK-MEL-28 melanoma) | TGI (PC-3 prostate) | TGI (SN12C renal)

Cc1cn([C@@H]2C[C@H](CO)[C@@H]2O)c(=O)[nH]c1=O
> 100 µM: TGI (BT-549 breast) | TGI (EKVX NSCLC) | TGI (HT29 colon) | TGI (HCC-2998 colon) | TGI (NCI-H522 lung) | TGI (HOP-62 NSCLC) | TGI (SK-MEL-2 melanoma) | TGI (SK-MEL-28 melanoma) | TGI (PC-3 prostate) | TGI (SN12C renal)

O=C(CSCC(=O)N/N=C\c1ccccc1F)N/N=C\c1ccccc1F
> 100 µM: TGI (EKVX NSCLC) | TGI (HT29 colon) | TGI (HCC-2998 colon) | TGI (NCI-H522 lung) | TGI (T-47D breast) | TGI (SK-MEL-2 melanoma) | TGI (SK-MEL-28 melanoma) | TGI (SN12C renal)

COc1ccc(CCCN2c3ccccc3Sc3ccccc32)cc1
> 100 µM: TGI (EKVX NSCLC) | TGI (HT29 colon) | TGI (HCC-2998 colon) | TGI (NCI-H522 lung) | TGI (HOP-62 NSCLC) | TGI (SK-MEL-2 melanoma) | TGI (SK-MEL-28 melanoma) | TGI (SN12C renal)

O=C(NN1C(=O)C(Cl)C1c1ccccc1Cl)c1ccccc1O (stereo not given)
> 100 µM: TGI (HT29 colon) | TGI (HCC-2998 colon) | TGI (NCI-H522 lung) | TGI (SK-MEL-2 melanoma) | TGI (SK-MEL-28 melanoma) | TGI (SN12C renal)

Cc1c2oc3c(C)cc(F)c(C(=O)NC4C(=O)NC(C(C)C)C(=O)N5CCCC5C(=O)N(C)CC(=O)N(C)C(C(C)C)C(=O)OC4C)c3nc-2c(C(=O)NC2C(=O)NC(C(C)C)C(=O)N3CCCC3C(=O)N(C)CC(=O)N(C)C(C(C)C)C(=O)OC2C)c(N)c1=O (stereo not given)
46.8 µM: TGI (EKVX NSCLC)
inactive: GI50 (EKVX NSCLC) 0.767 µM
4.68 µM: TGI (PC-3 prostate)
> 100 µM: TGI (SN12C renal)
1.31 µM and 0.988 µM: TGI (SK-MEL-28 melanoma)
0.663 µM: TGI (SK-MEL-2 melanoma)
1.66 µM and 1.95 µM: TGI (NCI-H522 lung)

COc1cccc([C@@H]2CC(=O)c3cc4c(cc3N2)OCO4)c1
> 100 µM: TGI (EKVX NSCLC) | TGI (HCC-2998 colon) | TGI (HOP-62 NSCLC) | TGI (T-47D breast) | TGI (SK-MEL-2 melanoma) | TGI (SK-MEL-28 melanoma) | TGI (PC-3 prostate) | TGI (SN12C renal)

Cc1ccc2c(=O)cc(Cc3csc4ccccc34)[nH]c2n1
53.3 µM: TGI (NCI-H522 lung)
73.2 µM: TGI (T-47D breast)
66.4 µM: TGI (BT-549 breast)
> 100 µM: TGI (EKVX NSCLC) | TGI (HT29 colon) | TGI (HOP-62 NSCLC) | TGI (SK-MEL-2 melanoma) | TGI (SK-MEL-28 melanoma) | TGI (PC-3 prostate) | TGI (SN12C renal)

CO[C@]12CC(=O)C3(C(C[C@H]4CC5CC[C@H]6C[C@@H](OC(C)=O)CC[C@]6(OC(C)=O)C5C[C@@]43C)C1)C1C[C@H]3[C@@H]4CC[C@H]5C[C@@H](OC(C)=O)CC[C@]5(OC(C)=O)[C@H]4CC[C@]3(C)C12 (stereo not given in full)
> 100 µM: TGI (EKVX NSCLC) | TGI (HT29 colon) | TGI (HCC-2998 colon) | TGI (HOP-62 NSCLC) | TGI (T-47D breast) | TGI (SK-MEL-2 melanoma) | TGI (SK-MEL-28 melanoma) | TGI (PC-3 prostate) | TGI (SN12C renal)

CC(C)(C)OC(=O)NC(CCCCNC(=O)CNC(=O)OCc1ccccc1)C(=O)NC(CCCCNC(=O)CNC(=O)OCc1ccccc1)C(=O)NC(CCCCNC(=O)CNC(=O)OCc1ccccc1)C(=O)NC(CCCCNC(=O)CNC(=O)OCc1ccccc1)C(=O)O (stereo not given) (Boc-K([Gly-Cbz])K([Gly-Cbz])K([Gly-Cbz])K([Gly-Cbz])-OH; configuration not given here)
> 100 µM: TGI (BT-549 breast) | TGI (HT29 colon) | TGI (HCC-2998 colon) | TGI (NCI-H522 lung) | TGI (HOP-62 NSCLC) | TGI (T-47D breast) | TGI (SK-MEL-2 melanoma) | TGI (SK-MEL-28 melanoma) | TGI (PC-3 prostate) | TGI (SN12C renal)

NCCS(=O)(=O)O
> 100 µM: TGI (EKVX NSCLC) | TGI (HT29 colon) | TGI (HCC-2998 colon) | TGI (NCI-H522 lung) | TGI (HOP-62 NSCLC) | TGI (T-47D breast) | TGI (SK-MEL-2 melanoma) | TGI (SK-MEL-28 melanoma) | TGI (PC-3 prostate) | TGI (SN12C renal)

O=C1CCCCN1C(=O)c1ccc([N+](=O)[O-])cc1
> 100 µM: TGI (BT-549 breast) | TGI (EKVX NSCLC) | TGI (HT29 colon) | TGI (HCC-2998 colon) | TGI (NCI-H522 lung) | TGI (HOP-62 NSCLC) | TGI (T-47D breast) | TGI (SK-MEL-28 melanoma) | TGI (PC-3 prostate) | TGI (SN12C renal)

N#Cc1c(N2CCCC2)nsc1Nc1ccc(F)cc1
> 100 µM: TGI (EKVX NSCLC) | TGI (HT29 colon) | TGI (HCC-2998 colon) | TGI (NCI-H522 lung) | TGI (HOP-62 NSCLC) | TGI (T-47D breast) | TGI (SK-MEL-2 melanoma) | TGI (SK-MEL-28 melanoma) | TGI (PC-3 prostate) | TGI (SN12C renal)

O=P(O)(O)CN1CCNCCN(CP(=O)(O)O)CCN(CP(=O)(O)O)CCNCC1
inactive: outcome (EKVX NSCLC) | GI50 (HT29 colon) 49000 µM | outcome (NCI-H522 lung) | outcome (HOP-62 NSCLC) | outcome (SK-MEL-28 melanoma) | outcome (PC-3 prostate) | outcome (SN12C renal)

C1=CN2C[n+]3ccc4ccccc4c3N=C2c2ccccc21
9.52 µM: TGI (SN12C renal)
31.1 µM: TGI (PC-3 prostate)
32.5 µM: TGI (HOP-62 NSCLC)
20.9 µM: TGI (BT-549 breast)
10.4 µM: TGI (HT29 colon)
9.33 µM: TGI (SK-MEL-2 melanoma)
38.8 µM: TGI (EKVX NSCLC)
5.29 µM: TGI (T-47D breast)
5.09 µM: TGI (NCI-H522 lung)

O=c1[nH]c(=O)n(COCc2ccccc2)c2ccccc12
> 100 µM: TGI (EKVX NSCLC) | TGI (HT29 colon) | TGI (SK-MEL-2 melanoma) | TGI (SK-MEL-28 melanoma) | TGI (PC-3 prostate) | TGI (SN12C renal)

O=C1CCC2(c3ccc(Cl)cc3)Nc3ncncc3N12 (stereo not given)
> 10 µM: TGI (BT-549 breast) | TGI (EKVX NSCLC) | TGI (HT29 colon) | TGI (HCC-2998 colon) | TGI (NCI-H522 lung) | TGI (SK-MEL-2 melanoma) | TGI (PC-3 prostate) | TGI (SN12C renal)

COc1cc(S(=O)(=O)Nc2ccc(-c3csc(N4C(=O)C(C)SC4c4ccccc4)n3)cc2)ccc1Cl (stereo not given)
54.2 µM: TGI (T-47D breast)
21.5 µM: TGI (SK-MEL-2 melanoma)
> 100 µM: TGI (BT-549 breast) | TGI (EKVX NSCLC) | TGI (HT29 colon) | TGI (NCI-H522 lung) | TGI (SK-MEL-28 melanoma) | TGI (PC-3 prostate) | TGI (SN12C renal)

CN(/N=C/c1ccc(Cl)cc1)C1=NCCCCN1
> 100 µM: TGI (BT-549 breast) | TGI (EKVX NSCLC) | TGI (HT29 colon) | TGI (HCC-2998 colon) | TGI (NCI-H522 lung) | TGI (HOP-62 NSCLC) | TGI (T-47D breast) | TGI (PC-3 prostate) | TGI (SN12C renal)

O=C1C=C(O)c2c(O)ccc(O)c2C1=O
> 100 µM: TGI (BT-549 breast) | TGI (HT29 colon) | TGI (HCC-2998 colon) | TGI (NCI-H522 lung) | TGI (HOP-62 NSCLC) | TGI (T-47D breast) | TGI (SK-MEL-2 melanoma) | TGI (SK-MEL-28 melanoma) | TGI (PC-3 prostate)
